Experimental data reported in US10214526B2, “Substituted pyrazolo[1,5-a]-pyridine-3-carboxamides and use thereof” (Bayer Pharma Aktiengesellschaft, priority 2015, dated 2019).
Counter-ions that a name gives are not always drawn.

Test system: recombinant guanylate cyclase reporter cell line
Assay: Effect on a recombinant guanylate cyclase reporter cell line
Type: cell-based
Conditions: in some cases mean values from individual determinations
Experimental: B-2. Effect on a Recombinant Guanylate Cyclase Reporter Cell Line
The cellular activity of the compounds according to the invention is determined using a recombinant guanylate cyclase reporter cell line, as described in F. Wunder et al., Anal. Biochem. 339, 104-112 (2005).
Representative MEC values (MEC=minimum effective concentration) for the compounds of the invention are shown in the table below (in some cases as mean values from individual determinations): […]

| SMILES | MEC (minimum effective concentration) [µM] |
| --- | --- |
| Cc1cc(OCc2c(F)cccc2F)n2nc(C)c(C(=O)NC(C)(CO)c3nnn(C(F)F)n3)c2c1 (racemic) [Example 2, rac-7-[(2,6-Difluorobenzyl)oxy]-N-{2-[2-(difluoromethyl)-2H-tetrazol-5-yl]-1-hydroxypropan-2-yl}-2,5-dimethylpyrazolo[1,5-a]pyridine-3-carboxamide] | 0.10 |
| [2H]C([2H])([2H])CC(C)(N)CNC(=O)c1c(C)nn2c(OCc3c(F)cccc3F)cc(C)cc12 (single isomer, unassigned; enantiomer a) [Example 3, ent-N-[2-Amino-2-methyl(4,4,4,4-^2H3)butyl]-7-[(2,6-difluorobenzyl)oxy]-2,5-dimethylpyrazolo[1,5-a]pyridine-3-carboxamide (Enantiomer A)] | 0.30 |
| Cc1cc(OCc2c(F)cccc2F)n2nc(C)c(C(=O)NCC(C)(N)CC[Si](C)(C)C)c2c1 (single isomer, unassigned; enantiomer a) [Example 4, ent-N-[2-Amino-2-methyl-4-(trimethylsilyl)butyl]-7-[(2,6-difluorobenzyl)oxy]-2,5-dimethylpyrazolo[1,5-a]pyridine-3-carboxamide (Enantiomer A)] | 0.53 |
| Cc1cc(OCc2c(F)cccc2F)n2nc(C)c(C(=O)NCC(C)(N)CC[Si](C)(C)C)c2c1 (single isomer, unassigned; enantiomer b) [Example 5, ent-N-[2-Amino-2-methyl-4-(trimethylsilyl)butyl]-7-[(2,6-difluorobenzyl)oxy]-2,5-dimethylpyrazolo[1,5-a]pyridine-3-carboxamide (Enantiomer B)] | 0.30 |
| Cc1cc(OCc2c(F)cccc2F)n2nc(C)c(C(=O)N[C@@](C)(CO)c3nnc(C)s3)c2c1 [Example 1, 7-[(2,6-Difluorobenzyl)oxy]-N-[(2S)-1-hydroxy-2-(5-methyl-1,3,4-thiadiazol-2-yl)propan-2-yl]-2,5-dimethylpyrazolo[1,5-a]pyridine-3-carboxamide trifluoroacetate] | 0.20 |
